Test results taken from US5786372A, “Heteroaryl compounds used as pharmaceuticals” (SmithKline Beecham p.l.c., priority 1992, dated 1998).
Where a name gives a salt, the structure may show the parent alone.

Molecular target: T1, 5-HT4 receptor (Cavia porcellus, UniProt O70528)
T1 construct: Longitudinal muscle-myenteric plexus preparations, approximately 3 cm long, are obtained from the distal colon region; from tissue; host or cells: guinea-pig distal colon, longitudinal muscle-myenteric plexus preparation
T1 sequence (O70528 whole entry): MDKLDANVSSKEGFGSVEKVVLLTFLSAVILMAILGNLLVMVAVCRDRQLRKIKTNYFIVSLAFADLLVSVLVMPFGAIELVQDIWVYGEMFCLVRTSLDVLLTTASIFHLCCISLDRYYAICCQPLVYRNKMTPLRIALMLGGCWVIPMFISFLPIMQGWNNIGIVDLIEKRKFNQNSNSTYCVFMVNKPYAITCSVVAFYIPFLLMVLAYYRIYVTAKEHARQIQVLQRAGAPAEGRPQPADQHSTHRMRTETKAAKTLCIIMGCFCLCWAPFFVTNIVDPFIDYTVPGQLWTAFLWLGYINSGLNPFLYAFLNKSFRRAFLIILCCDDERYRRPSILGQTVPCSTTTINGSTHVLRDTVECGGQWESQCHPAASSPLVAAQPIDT
Assay: Guinea pig colon 5-HT4 receptor antagonist activity (longitudinal muscle-myenteric plexus, 5-HT evoked contraction)
Details: -log concentration of antagonist which reduces the 5-HT evoked contraction by 50%; guinea-pig distal colon; methiothepin 10^-7 M and granisetron 10^-6 M present
Procedure: 5-HT4 RECEPTOR ANTAGONIST ACTIVITY
Male guinea-pigs, weighing 250-400 g are used. Longitudinal muscle-myenteric plexus preparations, approximately 3 cm long, are obtained from the distal colon region. These are suspended under a 0.5 g load in isolated tissue baths containing Krebs solution bubbled with 5% CO2 in O2 and maintained at 37° C. In all experiments, the Krebs solution also contains methiothepin 10^-7 M and granisetron 10^-6 M to block effects at 5-HT1, 5-HT2 and 5-HT3 receptors.
After construction of a simple concentration-response curve with 5-HT, using 30 s contact times and a 15 min dosing cycle, a concentration of 5-HT is selected so as to obtain a contraction of the muscle approximately 40-70% maximum (10^-9 M approx). The tissue is then alternately dosed every 15 min with this concentration of 5-HT and then with an approximately equi-effective concentration of the nicotine receptor stimulant, dimethylphenylpiperazinium (DMPP). After obtaining consistent responses to both 5-HT and DMPP, increasing concentrations of a putative 5-HT4 receptor antagonist are then added to the bathing solution. The effects of this compound are then determined as a percentage reduction of the contractions evoked by 5-HT or by DMPP. […] A compound which reduces the response to 5-HT but not to DMPP is believed to act as a 5-HT4 receptor antagonist.

With `Nc1c(Cl)cc(C(=O)OCC2CCN(CCCO)CC2)c2c1OCCO2` [Example E1, [1-(3Hydroxypropyl)-4-piperidinyl]methyl 8-amino-7-chloro-1,4-benzodioxan-5-carboxylate hydrochloride] as the compound, how does the IC50 read?
The IC50 was 63.1 pM.
